Earlier results, collected in patent publication US20250066504A1, “USE OF OREGOVOMAB AND PARP INHIBITORS FOR TREATMENT OF OVARIAN CANCER” (CANARIABIO INC., priority 2022, published 2025).
Values joined by “and” are separate entries in the source; they are usually repeats but may differ in a detail not shown here. Identical values can stand only once. Like-named read-outs stand apart in the source and are kept apart here.

Assays:
[1] = in vivo
[2] = 300 mg dose
P-glycoprotein (P-gp) = P-glycoprotein (P-gp) (Homo sapiens, UniProt P08183)
[3] = system: platinum-sensitive, recurrent ovarian cancer
BRCA1-mutant xenograft = details: dosed orally
[4] = system: BRCA1-mutant breast cancer (MDA-MB-436)
[5] = system: patient-derived Ewing sarcoma; details: mouse, in vivo
[6] = for grade 3/4 thrombocytopenia rate in the first 30 days: classification tree model
[7] = system: BRCA2-mutant pancreatic cancer (CAPAN-1)
[8] = not given; remark: listed apart in the source
[9] = system: patient-derived ovarian and breast cancer xenograft; details: in vivo
[10] = human, in vivo
[11] = system: normal human organs and tissues
tumor = details: tumor-bearing mice
[12] = system: immune suppressive malignancy; details: immune initiation alone
[13] = 100 times the estimated human dose equivalent (2 mg/60 kg body weight)
[14] = human, in vivo; remark: listed apart in the source
[15] = system: adenocarcinomas expressing the CA125 antigen
[16] = 100 times the estimated human dose equivalent (2 mg/60 kg body weight); remark: listed apart in the source
CA-125-expressing tumors = details: mouse, in vivo
[17] = normal rabbits
[18] = normal rats
[19] = system: platinum resistant disease
[20] = system: platinum-sensitive disease; details: added to gemcitabine and carboplatin
[21] = system: platinum-sensitive recurrent ovarian cancer; details: added to standard chemotherapy, followed by maintenance until progression
[22] = system: advanced epithelial ovarian, adnexal, or primary peritoneal cancer, Stage III and Stage IV; details: K-M method
[23] = HRDpos (Within non-gBRCAmut Cohort)
[24] = Non-gBRCAmut Cohort (Regardless of HRD Status)
[25] = lower baseline platelets (<180×10^9/L)

P-glycoprotein (P-gp), sequence (P08183 whole entry): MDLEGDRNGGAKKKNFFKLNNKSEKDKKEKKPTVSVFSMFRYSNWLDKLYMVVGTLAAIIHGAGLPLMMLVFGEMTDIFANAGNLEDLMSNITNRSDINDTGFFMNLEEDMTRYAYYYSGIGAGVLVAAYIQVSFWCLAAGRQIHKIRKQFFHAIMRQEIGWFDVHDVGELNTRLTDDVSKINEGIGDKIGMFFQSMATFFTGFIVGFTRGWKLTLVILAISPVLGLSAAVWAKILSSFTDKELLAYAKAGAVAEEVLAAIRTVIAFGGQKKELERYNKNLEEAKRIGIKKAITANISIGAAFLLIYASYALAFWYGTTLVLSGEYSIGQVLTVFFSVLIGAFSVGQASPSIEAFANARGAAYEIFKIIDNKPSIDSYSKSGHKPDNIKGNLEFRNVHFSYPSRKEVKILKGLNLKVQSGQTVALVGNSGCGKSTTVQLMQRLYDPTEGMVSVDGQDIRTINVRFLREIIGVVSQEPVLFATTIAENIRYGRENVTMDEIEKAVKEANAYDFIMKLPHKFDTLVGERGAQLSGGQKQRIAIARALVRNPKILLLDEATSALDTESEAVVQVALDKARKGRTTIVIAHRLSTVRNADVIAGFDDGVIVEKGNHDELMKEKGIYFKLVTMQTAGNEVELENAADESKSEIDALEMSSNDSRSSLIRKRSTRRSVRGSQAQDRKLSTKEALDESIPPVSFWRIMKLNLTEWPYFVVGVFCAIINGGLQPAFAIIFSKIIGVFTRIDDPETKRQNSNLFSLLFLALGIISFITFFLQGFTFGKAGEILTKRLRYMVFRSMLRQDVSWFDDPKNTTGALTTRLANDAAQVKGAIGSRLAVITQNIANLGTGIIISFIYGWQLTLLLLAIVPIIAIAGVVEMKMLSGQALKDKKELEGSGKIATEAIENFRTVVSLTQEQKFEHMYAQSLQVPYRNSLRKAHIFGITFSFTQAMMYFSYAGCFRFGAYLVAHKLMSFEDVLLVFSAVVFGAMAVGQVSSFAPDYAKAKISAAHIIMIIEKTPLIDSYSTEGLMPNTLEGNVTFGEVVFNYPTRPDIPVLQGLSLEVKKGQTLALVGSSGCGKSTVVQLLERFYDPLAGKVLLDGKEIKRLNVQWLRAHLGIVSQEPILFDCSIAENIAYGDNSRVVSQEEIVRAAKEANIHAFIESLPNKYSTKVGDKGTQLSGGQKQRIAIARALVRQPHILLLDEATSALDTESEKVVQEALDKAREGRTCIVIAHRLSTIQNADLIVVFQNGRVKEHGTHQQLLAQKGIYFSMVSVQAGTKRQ

Molecule: NC(=O)c1cccc2cn(-c3ccc([C@@H]4CCCNC4)cc3)nc12 [Niraparib]
- effect of food on absorption [1]: does not significantly affect
- bone marrow suppression (neutropenia, thrombocytopenia, and anemia), subjects [2]: 20-40%
- hypertension/hypertensive crisis, subjects ([2]; treatment for up to two years): 9%
- substrate for P-gp (P-glycoprotein (P-gp)): relatively poor substrate
- synthetic lethality (cells with HRD; cells with HRD): induce synthetic lethality
- effect on normal DNA repair mechanisms (cells with HRD; pre-clinical models): inhibit normal DNA repair mechanisms
- HR (niraparib:placebo) [3, 23]: 0.38
- Median PFS [3, 23]: 12.9 months
- HR (niraparib:placebo) [3, 24]: 0.45
- Median PFS [3, 24]: 9.3 months
- Median PFS ([3]; gBRCAmut Cohort, 300 mg QD): 21.0 months
- HR (niraparib:placebo) ([3]; gBRCAmut Cohort, stratified Cox proportional hazards model): 0.27
- efficacy at the reduced dose ([3]; retrospective analyses from NOVA): did not compromise efficacy
- HR ([3]; subjects with HRDneg tumors): 0.58
- Median PFS ([3]; subjects with HRDneg tumors): 6.9 months
- incidence of MDS/AML (5 of 367): 1.4%
- anemia (all grades) (human, in vivo): 49%
- constipation (all grades) (human, in vivo): 40%
- decreased platelet count (all grades) (human, in vivo): 20%
- fatigue (all grades) (human, in vivo): 46%
- nausea (all grades) (human, in vivo): 74%
- neutropenia (all grades) (human, in vivo): 18%
- on-treatment deaths (human, in vivo): no on-treatment deaths
- subjects with at least 1 treatment-emergent adverse event (TEAE) (human, in vivo): All 367
- thrombocytopenia (all grades) (human, in vivo): 46%
- vomiting (all grades) (human, in vivo): 34%
- TEAEs leading to dose reduction (overall safety population): 69%
- TEAEs leading to treatment discontinuation (overall safety population): 15%
- TEAEs leading to treatment interruption (overall safety population): 67%
- incidence of Grade 3 or 4 TEAEs (overall safety population): 74%
- incidence of serious adverse events (SAEs) (overall safety population): 30%
- reduction in tumor weight compared with control (BRCA1-mutant xenograft): > 90%
- tumor response (BRCA1-mutant xenograft): tumor regression
- antitumor activity [4]: strong antitumor activity
- ORR (ovarian cancer; 98 subjects in the HRD-positive cohort, RECIST v1.1, 300 mg once daily): 24%
- Estimated median DOR (ovarian cancer; HRD-positive cohort): 8.3 months
- new safety signals (ovarian cancer; in vivo): No new safety signals
- subjects achieving an overall response (ovarian cancer; primary efficacy population (13 of 47)): 28%
- ORR (ovarian cancer; tBRCAm ovarian cancer, platinum-refractory disease (3/16)): 19%
- ORR (ovarian cancer; tBRCAm ovarian cancer, platinum-resistant disease (6/21)): 29%
- ORR (ovarian cancer; tBRCAm ovarian cancer, platinum-sensitive disease (7/18)): 39%
- antitumor activity [5]: strong antitumor activity
- grade 3/4 thrombocytopenia rate in the first 30 days ([6]; baseline body weight <77 kg or baseline platelet count <150,000 μL): approximately 30%
- grade 3/4 thrombocytopenia rate in the first 30 days ([6]; baseline body weight <77 kg or baseline platelet count <150,000 μL, listed as niraparib): 35.4% and ~30%
- incidence of grade 3 or 4 thrombocytopenia in the first 30 days ([6]; baseline body weight ≥77 kg): 14%
- incidence of grade 3 or 4 thrombocytopenia in the first 30 days ([6]; body weight <58 kg): 43%
- subjects with a dose reduction ([6]; body weight <58 kg): approximately 80%
- grade 3/4 thrombocytopenia rate in the first 30 days ([6]; body weight >77 kg and platelet count >150,000 μL): 11.5%
- treatment discontinuations ([6]; highest quartile (≥77 kg)): 10%
- frequency of thrombocytopenia Grade ≥1 [6, 25]: 76%
- frequency of thrombocytopenia Grade ≥3 [6, 25]: 45%
- treatment discontinuations ([6]; lower body weight (<58 kg quartile)): 24%
- subjects with a dose reduction ([6]; weight greater than or equal to 77 kg): 59%
- antitumor activity [7]: strong antitumor activity
- correlation between exposure level (plasma concentration) and QTc changes (ΔQTcF) ([8]; in vivo): no correlation
- clinically significant abnormal ECG changes, including QTc interval prolongation, attributed to niraparib ([8]; n=26): no reports
- QT interval ([8]; therapeutic dose): did not prolong
- response in patient-derived xenograft models [9]: demonstrated response in both BRCAmut and BRCA wild-type tumors

Molecule: O=C(c1cc(Cc2n[nH]c(=O)c3ccccc23)ccc1F)N1CCN(C(=O)C2CC2)CC1 [olaparib]
- myelodysplastic syndrome (MDS) and acute myeloid leukemia (AML) [10]: have been observed

Molecule: Oregovomab
- affinity of binding to CA125 (CA125): 1.16e+10 M⁻¹
- binding force to cancer antigen 125 (CA-125) (CA125; during blood circulation): less than nano units
- cross-reactivity with selected normal human organs and tissues [11]: does not show any significant cross-reactivity
- cellular responses (tumor): evident
- humoral response (tumor): strong humoral response
- survival (tumor; compared to controls): increase in survival
- tumor size (tumor; compared to controls): decrease in tumor size
- effect on the clinical course of disease [12]: insufficient to alter the clinical course of disease
- acute toxicity [13]: lack of significant acute toxicity
- apparent terminal half-life (t1/2z) [14]: around 33 hours
- clearance on repeat administration [14]: accelerated
- dose of the radiotracer eliminated in the urine [14]: less than 50%
- mean residence time (MRT) [14]: about 45 hours
- plasma clearance [14]: around 110 mL/minute
- binding to adenocarcinomas expressing the CA125 antigen [15]: selective binding
- acute toxicity [16]: lack of significant acute toxicity
- ascites production (CA-125-expressing tumors): inhibited ascites production
- survival (CA-125-expressing tumors): long-term survival
- tumor size (CA-125-expressing tumors): reduced tumor size
- humoral response [17]: strong humoral response
- humoral response [18]: strong humoral response

Molecule: bevacizumab
- PFS ([19]; added to pegylated liposomal doxorubicin, weekly paclitaxel, or topotecan): improved PFS
- OS ([19]; added to single agent chemotherapy): not OS
- OS [20]: no difference in OS
- PFS [20]: improved PFS
- median overall survival [21]: improved the median overall survival

Molecule: paclitaxel/carboplatin
- OS (median) [22]: 43.2 months
- PFS (median) [22]: 12.2 months
- time to clinical progression (TTCP) (median) [22]: 13.6 months
